Measurements as given in patent publication US5834459A, “Alkyl-substituted compounds having dopamine receptor affinity” (Allelix Biopharmaceuticals Inc., priority 1996, dated 1998).

Key:
[1] = target: T1, human D4 receptor (D4.2 sub-type) (Homo sapiens, UniProt P21917, DEL265-296); assay: Receptor Binding Assay: displacement of 3H-spiperone, D4 receptor; conditions: for Ki: 3H-spiperone displacement, HEK 298 cells transfected with human D4.2, read-out: Ki (D4 affinity)
T1 construct: expressed in transfected cells; cell homogenate
T1 sequence (P21917 with tags, fused parts or gaps DEL265-296): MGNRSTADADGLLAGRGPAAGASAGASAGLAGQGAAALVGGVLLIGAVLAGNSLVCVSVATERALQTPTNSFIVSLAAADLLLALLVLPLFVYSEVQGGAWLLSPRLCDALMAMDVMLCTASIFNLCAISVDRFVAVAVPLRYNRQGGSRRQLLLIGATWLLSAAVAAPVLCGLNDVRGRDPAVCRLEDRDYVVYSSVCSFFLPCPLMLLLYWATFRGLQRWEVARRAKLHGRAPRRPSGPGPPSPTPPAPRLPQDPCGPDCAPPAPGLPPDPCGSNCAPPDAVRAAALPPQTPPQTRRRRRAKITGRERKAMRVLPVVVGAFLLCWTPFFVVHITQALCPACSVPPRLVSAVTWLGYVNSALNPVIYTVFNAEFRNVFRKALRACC
Protocol: (§1) The potency of the test compound to reduce ^3 H-spiperone binding directly correlated to its binding affinity for the receptor.
The cells were then centrifuged in a Sorval centrifuge for 10 minutes, 5000 rpm (GS3 rotor) and the pellets quickly frozen in liquid nitrogen and stored at -80° C. until used in binding assay. When used in the assay, cells were thawed on ice for 20 minutes and then 10 mL of incubation buffer (50 mM Tris, 1 mM EDTA, 4 mM MgCl2, 5 mM KCl, 1.5 mM CaCl2, 120 mM NaCl, pH7.4) was added. […] Concentration of receptor protein was determined using the Pierce BCA assay.
(§2) The tubes were vortexed and incubated at room temperature for 90 minutes. The binding reaction was stopped by filtering using a Brandell Cell Harvester. The samples were filtered under vacuum over glass fibre filters (Whatman GF/B) presoaked for 2 hours in 0.3% polyethylenimine (PEI) in 50 mM Tris buffer (pH7.4). The filters were then washed 3 times with 5 mL ice cold 50 mM Tris buffer (pH7.4). Individual filter disks were put in scintillation vials (Biovials, Bechman). Ready Protein Plus liquid scintillant (5 mL, Beckman) was added and the vials counted by liquid scintillation spectrophotometry (Beckman LSC 6500) after equilibrating for three hours at room temperature to determine total binding (BT).
The tubes were vortexed and incubated at room temperature for 90 minutes at which time the binding reaction was stopped by filtering. The filters were washed and counted using the same procedure as in the total binding assay described above to give the non-specific binding value (NSB).
(§3) The incubation was started by the addition to 12×75 mm polypropylene tubes 500 μl (50 μg protein) membrane homogenate to a solution of 400 μl incubation buffer, 100 μl (0.25 final conc.) ^3 H-spiperone (90 Ci/mmol, Amersham, diluted in borosilicate glass vial to) and […] of test compound that was prepared from 1 mM stock dissolved in DMSO and stored at -20° C. in polypropylene cryogenic storage vials until dilution in incubation buffer in borosilicate glass vials. The tubes were vortexed and incubated at room temperature for 90 minutes at which time the binding reaction was stopped by filtering. The filters were washed and counted using the same procedure as in the total binding assay described above to give the displacement binding value (BD).
(§4) IC50 was determined from an inhibition response curve, logit-log plot of %B/BO vs concentration of test compound.
(§5) Ki was calculated by the Cheng and Prustoff transformation: […]
(§6) where [L] is the concentration of ^3 H-spiperone used in the assay and KD is the dissociation constant of ^3 H-spiperone determined independently under the same binding conditions.

[2] = target: human D2 receptor (short isoform) (Homo sapiens, UniProt P14416); assay: Receptor Binding Assay: displacement of 3H-spiperone, D2 receptor, for D2/D4 selectivity; conditions: for D2/D4 (selectivity): ratio D2/D4, GH4 C1 cells with human D2 short vs HEK 298 cells with human D4.2, 3H-spiperone
Protocol: as §1
GH4 C1 (rat pituitary) cells stably transfected with the human D2 receptor (short isoform) were grown in CO2 independent media in roller bottles (1500 cm^2) for 10 days. 100 μM ZnSO4 was added to the cells (the D2 promoter being zinc inducible). After 16 hours, fresh media was added to allow the cells to recover for 24 hours. The cells were harvested using versene and then centrifuged in a Sorval centrifuge for 10 minutes, at 5000 rpm (GS3 rotor). Pellets were quickly frozen in liquid nitrogen and stored at -80° C. until used in the binding assays. When used in the assay, cells were thawed on ice for 20 minutes. […] The receptor protein concentration was determined using the Pierce BCA assay.
as §2
This assay employed the same procedures as the non-specific binding assay for D4 with the exception that 2 μM (final conc.) of (-) sulpiride (Research Chemicals Inc.) was used in place of dopamine.
as §3, §4, §5, §6

[3] = target: D4 receptor; conditions: background; both products approximately; cited from earlier work
[4] = test system: D2 receptor; conditions: background; both products; cited from earlier work

Sequence of human D2 receptor (short isoform) (P14416 with tags, fused parts or gaps DEL242-270): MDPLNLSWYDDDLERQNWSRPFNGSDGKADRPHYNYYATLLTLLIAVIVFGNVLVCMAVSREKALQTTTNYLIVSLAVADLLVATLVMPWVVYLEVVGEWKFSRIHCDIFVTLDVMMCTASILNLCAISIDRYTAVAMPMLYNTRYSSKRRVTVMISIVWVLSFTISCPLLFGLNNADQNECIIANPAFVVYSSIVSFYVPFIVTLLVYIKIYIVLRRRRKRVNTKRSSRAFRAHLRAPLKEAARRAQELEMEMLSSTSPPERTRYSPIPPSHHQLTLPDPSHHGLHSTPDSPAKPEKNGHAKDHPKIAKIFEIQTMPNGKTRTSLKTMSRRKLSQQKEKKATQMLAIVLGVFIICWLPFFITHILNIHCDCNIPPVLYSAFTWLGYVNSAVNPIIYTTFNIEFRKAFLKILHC

| Compound | Ki [1] [nM] | D4 selectivity relative to the D2 receptor (in words) [2] | D4 selectivity compared with clozapine (in words) [2] | D2/D4 (selectivity) [2] | D4 affinity compared with clozapine (in words) [1] | Ki [3] [nM] | preference for binding the D4 receptor relative to the D2 receptor [4] |
| --- | --- | --- | --- | --- | --- | --- | --- |
| CCCCCCN1CCN(C2=Nc3ccccc3Oc3c(Cl)cccc32)CC1 [4-chloro-11-(4-hexyl-1-piperazinyl)dibenz[b,f][1,4]oxazepine] | 32 | bind to the D4 receptor selectively relative to the D2 receptor | better D4 selectivity than clozapine | 31.8 |  |  |  |
| CCCCCCCCCN1CCN(C2=Nc3ccccc3Oc3ccccc32)CC1 [11-(4-nonyl-1-piperazinyl)dibenz[b,f][1,4]oxazepine] | 109 | bind to the D4 receptor selectively relative to the D2 receptor |  | 3.9 |  |  |  |
| CCCCCCN1CCN(C2=Nc3ccccc3Oc3ccccc32)CC1 [11-(4-hexyl-1-piperazinyl)dibenz[b,f][1,4]oxazepine] | 22 | bind to the D4 receptor selectively relative to the D2 receptor | better D4 affinity and selectivity than clozapine | 20.0 | better D4 affinity and selectivity than clozapine |  |  |
| CN1CCN(C2=Nc3cc(Cl)ccc3Oc3ccccc32)CC1 [isoloxapine] |  |  |  |  |  | ~20 | about 10 fold |
| CCCCCCCCN1CCN(C2=Nc3ccccc3Oc3ccccc32)CC1 [11-(4-octyl-1-piperazinyl)dibenz[b,f][1,4]oxazepine] |  | bind to the D4 receptor selectively relative to the D2 receptor |  |  |  |  |  |
| CCCCCCCN1CCN(C2=Nc3ccccc3Oc3ccccc32)CC1 [11-(4-heptyl-1-piperazinyl)dibenz[b,f][1,4]oxazepine] |  | bind to the D4 receptor selectively relative to the D2 receptor |  |  |  |  |  |
| CCCCCCCCCN1CCN(C2=Nc3cc(Cl)ccc3Oc3ccccc32)CC1 [8-chloro-11-(4-nonyl-1-piperazinyl)dibenz[b,f][1,4]oxazepine] | 18 | bind to the D4 receptor selectively relative to the D2 receptor | better D4 affinity and selectivity than clozapine | 30.0 | better D4 affinity and selectivity than clozapine |  |  |
| CCCCCCCCCN1CCN(C2=Nc3ccccc3Oc3c(Cl)cccc32)CC1 [4-chloro-11-(4-nonyl-1-piperazinyl)dibenz[b,f][1,4]oxazepine] | 229 | bind to the D4 receptor selectively relative to the D2 receptor | better D4 selectivity than clozapine | 3.9 |  |  |  |
